Values after ≈ are worked out from the molar mass of the structure shown.
Key:
HepG2 = experiment: Cytotoxicity against Homo sapiens (human) HepG2 cells after 3 days by MTT assay; type: functional, cell-based
[1] = Cytotoxicity against Homo sapiens (human) HuCCa1 cells after 3 days by crystal violet staining; type: functional, cell-based, HuCC-A1
MOLT-3 = experiment: Cytotoxicity against Homo sapiens (human) MOLT3 cells after 3 days by crystal violet staining; type: functional, cell-based; conditions: MOLT-3, 72 h
A549 = experiment: Cytotoxicity against Homo sapiens (human) A549 cells after 3 days by MTT assay; type: functional, cell-based
[2] = test system: Radical scavenging activity; experiment: Antioxidant activity assessed as DPPH radical scavenging activity at 300 ug/mL after 30 min; type: functional
[3] = Antioxidant activity assessed as superoxide radical scavenging activity at 300 ug/mL by NBT reduction assay; type: functional
[4] = Homo sapiens, HepG2, 72 h, read-out: IC50
[5] = Homo sapiens, A549, 72 h, read-out: IC50
[6] = Homo sapiens, HuCC-A1, 72 h, read-out: IC50

In the case of `c1ccc(-c2cccc(SC34CC5CC(CC(C5)C3)C4)n2)cc1` [6-(1-ADAMANTYLTHIO)-2-PHENYLPYRIDINE], the IC50 (HepG2; [4]) is reported as 48.5 µg/mL (≈ 151 µM), the IC50 ([1]; hucc-a1) is reported as “Not Active” and the IC50 (MOLT-3) is reported as 32.2 µg/mL (≈ 100 µM). The IC50 (A549; [5]) was 44 µg/mL (≈ 137 µM), the Activity [2] was 7.37% and the Activity [3] was 25.9%.
For `Cc1ccc(SC23CC4CC(CC(C4)C2)C3)nc1` [6-(1-ADAMANTYLTHIO)-3-PICOLINE], the IC50 (HepG2; hepg2) was “Not Active”, the IC50 ([1]; hucc-a1) was “Not Active” and the IC50 (MOLT-3) was 27.2 µg/mL (≈ 105 µM). For the same molecule, the IC50 (A549; a549) was “Not Active”, the Activity [2] was 7.69% and the Activity [3] was 28.6%.
In the case of `Cc1cccnc1SC12CC3CC(CC(C3)C1)C2`, the IC50 (HepG2; [4]) is reported as 30 µg/mL (≈ 116 µM), the IC50 ([1]; hucc-a1) is reported as “Not Active” and the IC50 (MOLT-3) is reported as 33.3 µg/mL (≈ 128 µM). For the same molecule, the IC50 (A549; a549) was “Not Active”, the Activity [2] was 19.6% and the Activity [3] was 10.8%.
In the case of `c1ccc(-c2cc(SC34CC5CC(CC(C5)C3)C4)ccn2)cc1` [4-(1-ADAMANTYLTHIO)-2-PHENYLPYRIDINE], the IC50 (HepG2; hepg2) is reported as “Not Active”, the IC50 [1, 6] is reported as 49 µg/mL (≈ 152 µM) and the IC50 (MOLT-3) is reported as 28.6 µg/mL (≈ 88.8 µM). For the same molecule, the IC50 (A549; [5]) was 38 µg/mL (≈ 118 µM), the Activity [2] was 30.2% and the Activity [3] was 32.1%.
Work on `c1ccc(-c2ccncc2SC23CC4CC(CC(C4)C2)C3)cc1` [3-(1-ADAMANTYLTHIO)-4-PHENYLPYRIDINE] yielded an IC50 (HepG2; [4]) of 21.5 µg/mL (≈ 66.9 µM), an IC50 [1, 6] of 29 µg/mL (≈ 90.2 µM) and an IC50 (MOLT-3) of 8.02 µg/mL (≈ 24.9 µM). It also gave an IC50 (A549; [5]) of 24 µg/mL (≈ 74.7 µM), an Activity [2] of 12.2% and an Activity [3] of 37.5%.
Molecule `COc1cccc2c1C(=O)c1c(O)c3c(c(O)c1C2=O)C[C@@](O)(C(=O)CO)C[C@@H]3O[C@H]1C[C@H](N)[C@H](O)[C@H](C)O1` [DOXORUBICIN] has an IC50 (HepG2; [4]) of 0.23 µg/mL (≈ 0.423 µM), an IC50 [1, 6] of 0.45 µg/mL (≈ 0.828 µM) and an IC50 (A549; [5]) of 0.39 µg/mL (≈ 0.718 µM).
Work on `COc1cc([C@@H]2c3cc4c(cc3[C@@H](O[C@@H]3O[C@@H]5CO[C@@H](C)O[C@H]5[C@H](O)[C@H]3O)[C@H]3COC(=O)[C@H]23)OCO4)cc(OC)c1O` [ETOPOSIDE] yielded an IC50 (HepG2; [4]) of 12 µg/mL (≈ 20.4 µM) and an IC50 (MOLT-3) of 0.019 µg/mL (≈ 0.0323 µM).
Work on `Cc1cncc(SC23CC4CC(CC(C4)C2)C3)c1` [5-(1-ADAMANTYLTHIO)-3-PICOLINE] yielded an IC50 (HepG2; [4]) of 26.5 µg/mL (≈ 102 µM), an IC50 [1, 6] of 34 µg/mL (≈ 131 µM) and an IC50 (MOLT-3) of 15.8 µg/mL (≈ 61.1 µM). For the same molecule, the IC50 (A549; [5]) was 29 µg/mL (≈ 112 µM), the Activity [2] was 7.96% and the Activity [3] was 36.9%.
In the case of `c1ccc(-c2cccnc2SC23CC4CC(CC(C4)C2)C3)cc1`, the Activity [2] is reported as 11.1% and the Activity [3] is reported as 26.7%.
For `c1ccc(-c2ccc(SC34CC5CC(CC(C5)C3)C4)cn2)cc1`, the Activity [2] was 8.77% and the Activity [3] was 31.6%.
With `c1ccc(-c2ccc(SC34CC5CC(CC(C5)C3)C4)nc2)cc1` [6-(1-ADAMANTYLTHIO)-3-PHENYLPYRIDINE] the IC50 (HepG2; hepg2) was “Not Active”, the IC50 ([1]; hucc-a1) was “Not Active” and the IC50 (MOLT-3) was 32.5 µg/mL (≈ 101 µM). The IC50 (A549; [5]) was 44 µg/mL (≈ 137 µM), the Activity [2] was 10.6% and the Activity [3] was 18%.
With `c1ccc(-c2ccnc(SC34CC5CC(CC(C5)C3)C4)c2)cc1` the IC50 (HepG2; [4]) was 46.5 µg/mL (≈ 145 µM), the IC50 ([1]; hucc-a1) was “Not Active” and the IC50 (MOLT-3) was 31.1 µg/mL (≈ 96.7 µM). The IC50 (A549; a549) was “Not Active”, the Activity [2] was 6.95% and the Activity [3] was 32%.
